From ChEMBL document CHEMBL5113497, “Comparison of ATP-binding pockets and discovery of homologous recombination inhibitors” (Bioorg Med Chem, 2022)
Activity calls are given as the source filed them. No cut-off for these calls is given here.

How the values were obtained:
Homo sapiens = species: Homo sapiens; assay: Inhibition of recombinant human RAD51/p53 (unknown origin) interaction at 200 uM measured by ELISA assay
[1] = target: T1, DNA repair protein RAD51 homolog 1 (Homo sapiens) (UniProt Q06609); assay: Inhibition of RAD51 in human U2OS cells at 20 to 80 uM measured by direct repeats green fluorescent protein (DR-GFP) reporter assay; assay type: cell-based; conditions: dose 20-80 µM
T1 sequence (whole entry): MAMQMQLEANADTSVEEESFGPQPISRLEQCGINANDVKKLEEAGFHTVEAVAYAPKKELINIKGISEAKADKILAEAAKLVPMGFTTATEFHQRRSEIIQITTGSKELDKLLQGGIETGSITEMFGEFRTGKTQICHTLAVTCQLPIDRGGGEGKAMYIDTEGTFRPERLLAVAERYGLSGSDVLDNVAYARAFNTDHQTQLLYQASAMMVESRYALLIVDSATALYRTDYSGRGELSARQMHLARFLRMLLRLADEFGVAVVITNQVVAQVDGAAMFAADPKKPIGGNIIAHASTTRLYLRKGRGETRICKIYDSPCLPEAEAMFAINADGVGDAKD

Row | Structure (SMILES) | inhibition (Homo sapiens) | inhibition [1]
1 | C[C@@H]1Cc2ccccc2N1C(=O)COc1ccc(N(C)S(=O)(=O)c2ccccc2)cc1 | Active | Active
2 | Nc1ncnc2c1ncn2[C@@H]1O[C@H](COP(=O)(O)OP(=O)(O)OP(=O)(O)O)[C@@H](O)[C@H]1O | Active | 
3 | Cc1ccc(-n2nnnc2SCC(=O)Nc2oc(C)c3c(C)n[nH]c(=O)c23)c(C)c1 | Active | Active
4 | Cc1c(F)cc(C(N)=O)cc1NC(=O)c1cccc(S(=O)(=O)Nc2ccccc2F)c1 | Active | 
5 | Nc1ncnc2c1ncn2[C@@H]1O[C@H](COP(=O)(O)OP(=O)(O)NP(=O)(O)O)[C@@H](O)[C@H]1O | Active | 
6 | Cc1cc(C)c(CNC(=O)c2cccc(S(=O)(=O)N3C[C@H](C)C[C@@H](C)C3)c2)c(=O)[nH]1 | Active | 
